Assay results taken from patent EP4223882A1, “PROCESS FOR PRODUCING ALDONIC ACIDS” (Vilnius University, priority 2022, dated 2023).
Read-outs that look alike come from different tables or passages of the source.

Legend:
[1] = target: T1, PQQGDH (Acinetobacter calcoaceticus, UniProt P13650); settings: for cmax: sqrt(KM·Ki)
T1 sequence (P13650 25-478): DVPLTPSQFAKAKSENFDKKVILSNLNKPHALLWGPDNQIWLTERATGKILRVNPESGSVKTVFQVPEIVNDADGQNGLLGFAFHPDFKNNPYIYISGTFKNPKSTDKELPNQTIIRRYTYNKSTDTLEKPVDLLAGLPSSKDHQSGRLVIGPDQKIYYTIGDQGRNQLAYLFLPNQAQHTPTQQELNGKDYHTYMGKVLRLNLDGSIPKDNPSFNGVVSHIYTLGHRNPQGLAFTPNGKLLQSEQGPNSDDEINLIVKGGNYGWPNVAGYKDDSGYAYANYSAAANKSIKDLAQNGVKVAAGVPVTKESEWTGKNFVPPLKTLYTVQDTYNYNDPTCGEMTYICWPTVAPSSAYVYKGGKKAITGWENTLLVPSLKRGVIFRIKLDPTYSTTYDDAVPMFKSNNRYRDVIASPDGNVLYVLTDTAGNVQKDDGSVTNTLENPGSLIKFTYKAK
Description: (§1) The enzyme solution was prepared using deionized water and the molar concentration was calculated assuming the molecular mass of the enzyme to be 100 kDa.
(§2) The dependence of PQQGDH catalysed substrate oxidation rate of substrate concentration was estimated for various substrates at thionine concentration of 220 µM (Fig. 3). The dependence of thionine reduction rate on carbohydrate concentration was analysed by applying the equation X1 and the apparent parameters KM, Ki and Vmax were calculated: v = (s⋅Vmax)/(KM + s⋅(1+(s)/(Ki))) [formula]
(§3) The ratio of Vmax with Km was considered as the parameter specifying the reactivity of the various substrates - the higher the value of the ratio - the better substrate reactivity. Ki - is the enzyme inhibition by the substrate constant. The concentration of the substrate at which the rate of thionine reduction was maximal (Cmax) was calculated as sqrt(KM ⋅Ki) [formula] .

[2] = target: T1, PQQGDH; experiment: biochemical
Description: as §1, §2, §3

[3] = target: T2, horseradish peroxidase (Armoracia rusticana, UniProt P00433); settings: cited from earlier work
T2 sequence (P00433 31-338 limits assumed): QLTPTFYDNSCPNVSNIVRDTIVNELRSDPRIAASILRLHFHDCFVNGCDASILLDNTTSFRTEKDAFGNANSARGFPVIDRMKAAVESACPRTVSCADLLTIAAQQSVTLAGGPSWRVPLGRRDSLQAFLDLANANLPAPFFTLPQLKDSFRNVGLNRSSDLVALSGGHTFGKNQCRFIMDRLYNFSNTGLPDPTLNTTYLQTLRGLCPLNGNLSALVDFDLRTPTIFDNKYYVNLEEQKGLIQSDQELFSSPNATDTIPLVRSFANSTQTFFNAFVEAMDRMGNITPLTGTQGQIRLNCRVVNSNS

[4] = substrate: O=C[C@H](O)[C@@H](O)[C@@H](O)[C@H](O)CO; experiment: purified protein, by the assay type; settings: apparent parameter
Description: as §1, §2, §3

[5] = substrate: O=C[C@H](O)[C@H](O)[C@H](O)CO; experiment: purified protein, by the assay type; settings: other: pH 7.0, thionine 220 µM, apparent parameter
Description: as §1, §2, §3

[6] = substrate: OC[C@H]1O[C@@H](O[C@H]2[C@H](O)[C@@H](O)C(O)O[C@@H]2CO)[C@H](O)[C@@H](O)[C@H]1O; experiment: purified protein, by the assay type; settings: apparent parameter
Description: as §1, §2, §3

[7] = substrate: O=C[C@H](O)[C@@H](O)[C@H](O)CO; experiment: purified protein, by the assay type; settings: other: pH 7.0, thionine 220 µM, apparent parameter
Description: as §1, §2, §3

[8] = pH 7.0, thionine 220 µM, substrate concentration at maximal rate
[9] = Ki, pH 7.0, thionine 410 µM (asterisk), enzyme inhibition by the substrate constant
[10] = pH 7.0, thionine 410 µM (asterisk)
[11] = other: pH 7.0, thionine 410 µM (asterisk)

For `O=C[C@H](O)[C@@H](O)[C@H](O)CO` [Xylose], the “substrate concentration at which the maximal reaction rate was observed (cmax)” value (from here on “substrate concentration”) ([1]; grouping of substrates) was over 20 mM and the cmax [1, 8] was 88 ± 8 mM.

With `O=C[C@H](O)[C@@H](O)[C@@H](O)[C@H](O)CO` [Galactose] the “substrate concentration” value [1] was under 20 mM.

For `O=C[C@H](O)[C@@H](O)[C@H](O[C@@H]1O[C@H](CO)[C@@H](O)[C@H](O)[C@H]1O)[C@H](O)CO` [Cellobiose], the Ki [2] was 11 ± 1 mM, the Ki [2, 9] was 21 ± 1 mM and the “substrate concentration” value ([1]; grouping of substrates) was under 20 mM. It also gave a cmax [1, 8] of 2.4 ± 0.2 mM and a cmax [1, 10] of 3.3 ± 0.2 mM.

In the case of `OC[C@H]1O[C@@H](O[C@H]2[C@H](O)[C@@H](O)C(O)O[C@@H]2CO)[C@H](O)[C@@H](O)[C@H]1O` (stereo partly shown) [Lactose], the Ki [2] is reported as 25 ± 2 mM, the Ki [2, 9] is reported as 51 ± 2 mM and the “substrate concentration” value ([1]; grouping of substrates) is reported as under 20 mM. It also gave a cmax [1, 8] of 5.2 ± 0.9 mM and a cmax [1, 10] of 6.4 ± 0.4 mM.

In the case of `O=C[C@@H](O)[C@@H](O)[C@H](O)CO` [Lyxose], the “substrate concentration” value ([1]; grouping of substrates) is reported as over 20 mM, the Vmax ([1]; pH 7.0, thionine 220 µM, apparent parameter) is reported as 190 ± 40 s⁻¹ and the cmax [1, 8] is reported as >10^4 mM.

For `Nc1ccc2c(c1)Sc1cc(N)ccc1N2` [leuco thionine], the “bimolecular horseradish peroxidase and leuco thionine reactivity constant” value [3] is listed as 4.8e+08 M⁻¹ s⁻¹.

In the case of `O=C[C@H](O)[C@H](O)[C@H](O)CO` [Ribose], the “substrate concentration” value ([1]; grouping of substrates) is reported as over 20 mM and the cmax [1, 8] is reported as 84 ± 39 mM.

B1: PQQGDH (Acinetobacter calcoaceticus) (protein)
chain: T1 sequence (P13650 25-478)
B1 showed a Km ([4]; other: pH 7.0, thionine 220 µM) of 2400 ± 200 µM, a kcat ([4]; other: pH 7.0, thionine 220 µM) of 350 ± 30 s⁻¹ and a Km [4, 11] of 1800 ± 100 µM. It also gave a kcat [4, 11] of 349 ± 2 s⁻¹, a Km [5] of 21000 ± 5000 µM and a kcat [5] of 250 ± 60 s⁻¹. The Km ([6]; other: pH 7.0, thionine 220 µM) was 1500 ± 100 µM, the kcat ([6]; other: pH 7.0, thionine 220 µM) was 380 ± 50 s⁻¹ and the Km [6, 11] was 610 ± 20 µM. The kcat [6, 11] was 430 ± 10 s⁻¹, the Km [7] was 7100 ± 300 µM and the kcat [7] was 460 ± 20 s⁻¹.
